# Test results reported in patent US11498920B2, “4-(1H-imidazol-5-yl)-1H-pyrrolo[2, 3-b] pyridines for use in the treatment of leukaemias, lymphomas and solid tumors” (MASARYKOVA UNIVERZITA, priority 2018, dated 2022).
# Experiments:
# Type in all cases: cell-based
# primary CLL = test: Cytotoxicity on panel of cell lines, TMRE viability (Example II.2); conditions: Homo sapiens, 24 hours, mean, control = 1, read-out: cell viability relative to control, primary CLL
# Method: (§1) The leukemia and lymphoma-derived cell lines [MEC-1 cell line (derived from chronic lymphocytic leukemia—CLL), Nalm-16 (acute lymphocytic leukemia—ALL), K562 (chronic myeloid leukemia—CML), HL-60 (acute myeloid leukemia—AML), Maver-1 and Mino (mantle cell lymphoma—MCL), BL-41 (Burkitt lymphoma—BL), WSU-NHL (follicular lymphoma—FL), SUDHL (diffuse large B-cell lymphoma—DLBCL)], primary CLL cells and nonmalignant control primary cells were cultured in suspension in flasks under the following conditions: RPMI 1640 medium (Hyclone) supplemented with 10% fetal bovine serum (FBS, Gibco) and 1% penicillin/streptomycin (Life Technologies), 37° C., 5% CO2 and 95% relative humidity, with optimal culture cell density 5×10^6 cells/mL in case of primary cells and 0.5-1×10^6 cells/mL in case of cell lines. The adherent cell lines [A375 (derived from malignant melanoma), MDA-MB-231 and MCF-7 (breast cancer), MIA-PA-CA and PANC1 (pancreatic cancer), PC3 (prostate cancer), OVCAR4 (ovarian cancer) and HEPG2 (hepatocellular carcinoma)] were cultured on plates under the same conditions using RPMI1640 or DMEM medium (Gibco) according to instructions provided by the distributor (DSMZ/ATCC).
# (§2) The tested cell lines were incubated with inhibitors at 30 μM concentration or corresponding amount of solvent (DMSO, Sigma Aldrich) in standard culture conditions, seeded as 10^5 cells/500 μl per well in a 24-well plate. Experiments were performed in technical duplicates and 2-3 biological repetitions per cell line. Viability of cells was assessed after 24 hours.
# (§3) Relative values are presented as a mean value, showing ratio to the effect of control. Relative value <1=lower viability than control condition.
# MCF-7 = test: as above; conditions: Homo sapiens, MCF7, 24 hours, mean, control = 1, read-out: cell viability relative to control, MCF-7 (breast cancer)
# Method: as §1, §2, §3
# Nalm16 = test: as above; conditions: 24 hours, mean, control = 1, read-out: cell viability relative to control, Nalm16 (ALL)
# Method: as §1, §2, §3
# BL-41 = test: as above; conditions: Homo sapiens, 24 hours, mean, control = 1, read-out: cell viability relative to control, BL-41 (BL)
# Method: as §1, §2, §3
# MEC-1 = test: as above; conditions: Homo sapiens, MEC1, 24 hours, mean, control = 1, read-out: cell viability relative to control, MEC-1 (CLL)
# Method: as §1, §2, §3
# Mino = test: as above; conditions: Homo sapiens, 24 hours, mean, control = 1, read-out: cell viability relative to control, Mino (MCL)
# Method: as §1, §2, §3
# Maver1 = test: as above; conditions: Homo sapiens, 24 hours, mean, control = 1, read-out: cell viability relative to control, Maver1 (MCL)
# Method: as §1, §2, §3
# SUDHL = test: as above; conditions: 24 hours, mean, control = 1, read-out: cell viability relative to control, SUDHL (DLBCL)
# Method: as §1, §2, §3
# primary CLL cells = test: Cytotoxicity, TMRE flow cytometry viability, primary CLL cells (Example II.1); conditions: Homo sapiens, CLL cell, 6 hours, TMRE positive cells normalized to control, ratio to PF670462, <1 = higher cytotoxicity than PF670462, read-out: Viability of cells, Compound of formula I (100 μM), relative to PF670462 (100 μM), CLL primary cells
# [1] = test system: Maver-1 cells (mantle cell lymphoma); test: Cytotoxicity, TMRE flow cytometry viability, Maver-1 cells (Example II.1); conditions: Homo sapiens, Maver1, 24 hours, TMRE positive cells normalized to control, ratio to PF670462, <1 = higher cytotoxicity than PF670462, read-out: Viability of cells, Compound of formula I (100 μM), relative to PF670462 (100 μM), Maver-1 cells (mantle cell lymphoma)
# OVCAR4 = test: Cytotoxicity on panel of cell lines, TMRE viability (Example II.2); conditions: Homo sapiens, OVCAR-4, 24 hours, mean, control = 1, read-out: cell viability relative to control, OVCAR4 (ovarian cancer)
# Method: as §1, §2, §3
# PANC1 = test: as above; conditions: Homo sapiens, PANC-1, 24 hours, mean, control = 1, read-out: cell viability relative to control, PANC1 (pancreatic cancer)
# Method: as §1, §2, §3
# WSU-NHL = test: as above; conditions: Homo sapiens, 24 hours, mean, control = 1, read-out: cell viability relative to control, WSU-NHL (FL)
# Method: as §1, §2, §3
# A375 = test: as above; conditions: Homo sapiens, A-375, 24 hours, mean, control = 1, read-out: cell viability relative to control, A375 (melanoma)
# Method: as §1, §2, §3
# HEPG2 = test: as above; conditions: Homo sapiens, 24 hours, mean, control = 1, read-out: cell viability relative to control, HEPG2 (hepatocellular carcinoma)
# Method: as §1, §2, §3
# MIA-PA-CA = test: as above; conditions: Homo sapiens, MIA PaCa-2, 24 hours, mean, control = 1, read-out: cell viability relative to control, MIA-PA-CA (pancreatic cancer)
# Method: as §1, §2, §3
# MDA-MB-231 = test: as above; conditions: Homo sapiens, 24 hours, mean, control = 1, read-out: cell viability relative to control, MDA-MB-231 (breast cancer)
# Method: as §1, §2, §3
# PC3 = test: as above; conditions: Homo sapiens, PC-3, 24 hours, mean, control = 1, read-out: cell viability relative to control, PC3 (prostate cancer)
# Method: as §1, §2, §3
# HL60 = test: as above; conditions: Homo sapiens, HL-60, 24 hours, mean, control = 1, read-out: cell viability relative to control, HL60 (AML)
# Method: as §1, §2, §3
smiles,measurement,setting,value
Fc1ccc(-c2ncn(Cc3ccoc3)c2-c2ccnc3[nH]ccc23)cc1 [Preparative Example 23],viability at 30 µM,primary CLL,68%
same,viability at 30 µM,MCF-7,31%
same,viability at 30 µM,Nalm16,20%
same,viability at 30 µM,BL-41,57%
same,viability at 30 µM,MEC-1,84%
same,viability at 30 µM,Mino,65%
same,viability at 30 µM,Maver1,71%
same,viability at 30 µM,SUDHL,67%
same,viability at 100 µM,primary CLL cells,37%
same,viability at 100 µM,[1],46%
"COCCCn1cnc(-c2ccc(F)cc2)c1-c1ccnc2[nH]ccc12 [Preparative Example 24, 4-(4-(4-fluorophenyl)-1-(3-methoxypropyl)-1H-imidazol-5-yl)-1H-pyrrolo[2,3-b]pyridine]",viability at 30 µM,primary CLL,85%
same,viability at 30 µM,Nalm16,75%
same,viability at 30 µM,BL-41,76%
same,viability at 30 µM,Mino,80%
same,viability at 30 µM,Maver1,72%
same,viability at 100 µM,primary CLL cells,30%
"Fc1ccc(-c2ncn(C3CCNCC3)c2-c2ccnc3[nH]ccc23)cc1 [Preparative Example 37, 4-(4-(4-fluorophenyl)-1-(piperidin-4-yl)-1H-imidazol-5-yl)-1H-pyrrolo[2,3-b]pyridine]",viability at 30 µM,primary CLL,39%
same,viability at 30 µM,OVCAR4,82%
same,viability at 30 µM,PANC1,67%
same,viability at 30 µM,Nalm16,50%
same,viability at 30 µM,BL-41,75%
same,viability at 30 µM,SUDHL,89%
same,viability at 100 µM,primary CLL cells,51%
Fc1ccc(-c2ncn(-c3ccccc3)c2-c2ccnc3[nH]ccc23)cc1 [Preparative Example 47],viability at 30 µM,primary CLL,81%
same,viability at 30 µM,OVCAR4,76%
same,viability at 30 µM,PANC1,83%
same,viability at 30 µM,Nalm16,57%
same,viability at 30 µM,BL-41,73%
same,viability at 100 µM,primary CLL cells,78%
"c1cc(-c2c(C3CCCCC3)ncn2C2CCCCC2)c2cc[nH]c2n1 [Preparative Example 67, 4-(1,4-dicyclohexyl-1H-imidazol-5-yl)-1H-pyrrolo[2,3-b]pyridine]",viability at 30 µM,WSU-NHL,84%
same,viability at 30 µM,Nalm16,40%
same,viability at 30 µM,BL-41,76%
same,viability at 30 µM,Mino,72%
same,viability at 30 µM,A375,55%
same,viability at 30 µM,Maver1,73%
same,viability at 100 µM,primary CLL cells,66%
same,viability at 100 µM,[1],71%
"CS(=O)(=O)N[C@H]1CC[C@@H](n2cnc(-c3ccc(F)cc3)c2-c2ccnc3[nH]ccc23)CC1 [Preparative Example 74, N-(cis-4-(4-(4-fluorophenyl)-5-(1H-pyrrolo[2,3-b]pyridin-4-yl)-1H-imidazol-1-yl)cyclohexyl)methanesulfonamide]",viability at 30 µM,MCF-7,72%
same,viability at 30 µM,Nalm16,78%
same,viability at 30 µM,Maver1,84%
same,viability at 100 µM,primary CLL cells,73%
same,viability at 100 µM,[1],46%
"Fc1ccc(-c2ncn(Cc3ccco3)c2-c2ccnc3[nH]ccc23)cc1 [Preparative Example 81, 4-(4-(4-fluorophenyl)-1-(furan-2-ylmethyl)-1H-imidazol-5-yl)-1H-pyrrolo[2,3-b]pyridine]",viability at 30 µM,primary CLL,77%
same,viability at 30 µM,MCF-7,68%
same,viability at 30 µM,WSU-NHL,68%
same,viability at 30 µM,HEPG2,58%
same,viability at 30 µM,Mino,37%
same,viability at 30 µM,Maver1,51%
same,viability at 100 µM,primary CLL cells,60%
same,viability at 100 µM,[1],10%
C=CS(=O)(=O)N[C@H]1CC[C@@H](n2cnc(-c3ccc(F)cc3)c2-c2ccnc3[nH]ccc23)CC1 [Preparative Example 97],viability at 30 µM,primary CLL,51%
same,viability at 30 µM,MCF-7,28%
same,viability at 30 µM,WSU-NHL,2%
same,viability at 30 µM,OVCAR4,78%
same,viability at 30 µM,MIA-PA-CA,23%
same,viability at 30 µM,PANC1,50%
same,viability at 30 µM,MDA-MB-231,53%
same,viability at 30 µM,HEPG2,39%
same,viability at 30 µM,PC3,74%
same,viability at 30 µM,BL-41,11%
same,viability at 30 µM,MEC-1,1%
same,viability at 30 µM,HL60,68%
same,viability at 30 µM,Mino,0%
same,viability at 30 µM,A375,17%
same,viability at 30 µM,Maver1,1%
same,viability at 30 µM,SUDHL,68%
same,viability at 100 µM,primary CLL cells,18%
same,viability at 100 µM,[1],1%
"Cn1cnc(Cn2cnc(-c3ccc(F)cc3)c2-c2ccnc3[nH]ccc23)n1 [Preparative Example 106, 4-(4-(4-fluorophenyl)-1-((1-methyl-1H-1,2,4-triazol-3-yl)methyl)-1H-imidazol-5-yl)-1H-pyrrolo[2,3-b]pyridine]",viability at 30 µM,MCF-7,65%
same,viability at 30 µM,WSU-NHL,82%
same,viability at 30 µM,OVCAR4,89%
same,viability at 30 µM,MIA-PA-CA,68%
same,viability at 30 µM,HEPG2,24%
same,viability at 30 µM,Mino,85%
same,viability at 30 µM,A375,79%
same,viability at 30 µM,Maver1,54%
same,viability at 100 µM,[1],7%
"Fc1ccc(-c2ncn(C3CCCCC3)c2-c2c(F)cnc3[nH]ccc23)cc1 [Preparative Example 147, 4-(1-cyclohexyl-4-(4-fluorophenyl)-1H-imidazol-5-yl)-5-fluoro-1H-pyrrolo[2,3-b]pyridine]",viability at 30 µM,primary CLL,37%
same,viability at 30 µM,MCF-7,41%
same,viability at 30 µM,WSU-NHL,38%
same,viability at 30 µM,OVCAR4,69%
same,viability at 30 µM,MIA-PA-CA,45%
same,viability at 30 µM,PANC1,67%
same,viability at 30 µM,HEPG2,41%
same,viability at 30 µM,PC3,57%
same,viability at 30 µM,BL-41,21%
same,viability at 30 µM,MEC-1,38%
same,viability at 30 µM,HL60,84%
same,viability at 30 µM,Mino,1%
same,viability at 30 µM,A375,85%
same,viability at 30 µM,Maver1,0%
same,viability at 30 µM,SUDHL,1%
same,viability at 100 µM,primary CLL cells,8%
same,viability at 100 µM,[1],3%
"Fc1ccc(-c2ncn(C3CCCCC3)c2-c2ccnc3[nH]cc(F)c23)cc1 [Preparative Example 149, 4-(1-cyclohexyl-4-(4-fluorophenyl)-1H-imidazol-5-yl)-3-fluoro-1H-pyrrolo[2,3-b]pyridine]",viability at 30 µM,primary CLL,68%
same,viability at 30 µM,MCF-7,65%
same,viability at 30 µM,WSU-NHL,26%
same,viability at 30 µM,MIA-PA-CA,87%
same,viability at 30 µM,HEPG2,77%
same,viability at 30 µM,PC3,86%
same,viability at 30 µM,BL-41,22%
same,viability at 30 µM,MEC-1,33%
same,viability at 30 µM,HL60,79%
same,viability at 30 µM,Mino,1%
same,viability at 30 µM,Maver1,1%
same,viability at 30 µM,SUDHL,21%
same,viability at 100 µM,primary CLL cells,11%
same,viability at 100 µM,[1],0%
Fc1ccc(-c2ncn(C3CCCCC3)c2-c2ccnc3[nH]ccc23)cc1F [Preparative Example 173],viability at 30 µM,primary CLL,62%
same,viability at 30 µM,MCF-7,52%
same,viability at 30 µM,WSU-NHL,16%
same,viability at 30 µM,MIA-PA-CA,74%
same,viability at 30 µM,HEPG2,58%
same,viability at 30 µM,BL-41,5%
same,viability at 30 µM,MEC-1,9%
same,viability at 30 µM,HL60,77%
same,viability at 30 µM,Mino,1%
same,viability at 30 µM,Maver1,0%
same,viability at 30 µM,SUDHL,3%
same,viability at 100 µM,primary CLL cells,2%
same,viability at 100 µM,[1],1%
